Data as given in PubChem BioAssay AID328 (DTP/NCI, 2004).
Several values for one entry are separate records, joined by “and”; a condition that tells them apart may be missing. Equal values may be shown once. Inconclusive results and toxic doses are left out.

System: BDF1 mice, P388 leukemia ip, median survival T/C
Experiment: NCI In Vivo Anticancer Drug Screen. Data for tumor model P388 Leukemia (intraperitoneal) in B6D2F1 (BDF1) mice
Details: endpoint: median survival time, higher = longer survival
Outline: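 T/C = treated-group survival ÷ vehicle-control survival; tumour transplanted into mice before dosing.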

[1] = dose: 6.25 mg/kg/injection, schedule: Q04DX003 (ip), vehicle: saline
[2] = dose: 12.5 mg/kg/injection, schedule: Q04DX003 (ip), vehicle: saline
[3] = dose: 25.0 mg/kg/injection, schedule: Q04DX003 (ip), vehicle: saline
[4] = dose: 200.0 mg/kg/injection, schedule: Q04DX003 (ip), vehicle: saline
[5] = dose: 50.0 mg/kg/injection, schedule: Q01DX009 (ip), vehicle: saline with Tween-80
[6] = dose: 100.0 mg/kg/injection, schedule: Q01DX009 (ip), vehicle: saline with Tween-80
[7] = dose: 200.0 mg/kg/injection, schedule: Q01DX009 (ip), vehicle: saline with Tween-80
[8] = dose: 100.0 mg/kg/injection, schedule: Q04DX003 (ip), vehicle: saline with Tween-80
[9] = dose: 200.0 mg/kg/injection, schedule: Q04DX003 (ip), vehicle: saline with Tween-80
[10] = dose: 400.0 mg/kg/injection, schedule: Q04DX003 (ip), vehicle: saline with Tween-80
[11] = dose: 100.0 mg/kg/injection, schedule: Q01DX001 (ip), vehicle: saline with Tween-80
[12] = dose: 200.0 mg/kg/injection, schedule: Q01DX001 (ip), vehicle: saline with Tween-80
[13] = dose: 12.5 mg/kg/injection, schedule: Q01DX009 (ip), vehicle: saline with Tween-80
[14] = dose: 25.0 mg/kg/injection, schedule: Q01DX009 (ip), vehicle: saline with Tween-80
[15] = dose: 400.0 mg/kg/injection, schedule: Q01DX001 (ip), vehicle: saline with Tween-80
[16] = dose: 400.0 mg/kg/injection, schedule: Q01DX009 (ip), vehicle: saline with Tween-80

With Clc1ccc2nc(CI)c(CI)nc2c1 the T/C (dose: 3.12 mg/kg/injection, schedule: Q01DX009 (ip), vehicle: Klucel (hydroxypropylcellulose) (HPC)) was 100 % of control, the T/C (dose: 6.25 mg/kg/injection, schedule: Q01DX009 (ip), vehicle: Klucel (hydroxypropylcellulose) (HPC)) was 100 % of control and 122 % of control and the T/C [1] was 108 % of control. The T/C (dose: 12.5 mg/kg/injection, schedule: Q01DX009 (ip), vehicle: Klucel (hydroxypropylcellulose) (HPC)) was 88 % of control and 100 % of control, the T/C [2] was 108 % of control and the T/C (dose: 22.0 mg/kg/injection, schedule: Q01DX009 (ip), vehicle: saline with Tween-80) was 122 % of control. The T/C (dose: 25.0 mg/kg/injection, schedule: Q01DX009 (ip), vehicle: Klucel (hydroxypropylcellulose) (HPC)) was 95 % of control, the T/C [3] was 104 % of control and the T/C (dose: 33.0 mg/kg/injection, schedule: Q01DX009 (ip), vehicle: saline with Tween-80) was 113 % of control.
CCOC(=O)C1CC=CCC1C(=O)OCC (centres undefined) was tested, and the T/C (dose: 100.0 mg/kg/injection, schedule: Q04DX003 (ip), vehicle: saline) was 118 % of control, the T/C [4] was 118 % of control and the T/C (dose: 400.0 mg/kg/injection, schedule: Q04DX003 (ip), vehicle: saline) was 109 % of control.
In the case of CC(C)(C)NCC(O)c1cc(C(F)(F)F)nc2c(C(F)(F)F)cccc12 (centres undefined), the T/C [5] was 100 % of control, the T/C [6] was 100 % of control and the T/C [7] was 97 % of control.
S=C(/N=C1\CCC\C1=C/c1ccccc1)/N=C1\CCC\C1=C/c1ccccc1 was tested, and the T/C [8] was 100 % of control, the T/C [9] was 109 % of control and the T/C [10] was 115 % of control.
With c1ccc(N2CCCCCN2c2ccccc2)cc1 the T/C (dose: 50.0 mg/kg/injection, schedule: Q01DX001 (ip), vehicle: saline with Tween-80) was 92 % of control, the T/C [11] was 90 % of control and the T/C [12] was 90 % of control.
In the case of CC(C)=CCC/C(C)=C/CN1C(=O)CC(C)=C(C)C1=O, the T/C [8] was 100 % of control, the T/C [9] was 100 % of control and the T/C [10] was 104 % of control.
With Clc1ccc(N=C(SSC(Cl)(Cl)Cl)SSC(Cl)(Cl)Cl)cc1 the T/C [13] was 116 % of control, the T/C [14] was 103 % of control and the T/C [5] was 109 % of control.
For CCCCN(C)N=Nc1ccc(CCCC(=O)OCC)cc1, the T/C [13] was 91 % of control, the T/C [14] was 100 % of control and the T/C [5] was 117 % of control. For the same molecule, the T/C (dose: 132.0 mg/kg/injection, schedule: Q04DX003 (ip), vehicle: saline) was 95 % of control, the T/C [4] was 156 % of control and the T/C (dose: 300.0 mg/kg/injection, schedule: Q04DX003 (ip), vehicle: saline) was 121 % of control.
In the case of BrCCC[P+](c1ccccc1)(c1ccccc1)c1ccccc1, the T/C (dose: 0.94 mg/kg/injection, schedule: Q01DX010 (ip), vehicle: saline) was 95 % of control, the T/C (dose: 1.88 mg/kg/injection, schedule: Q01DX010 (ip), vehicle: saline) was 104 % of control and the T/C (dose: 1.9 mg/kg/injection, schedule: Q01DX009 (ip), vehicle: saline) was 105 % of control. For the same molecule, the T/C (dose: 3.13 mg/kg/injection, schedule: Q04DX003 (ip), vehicle: saline) was 92 % of control, the T/C (dose: 3.75 mg/kg/injection, schedule: Q01DX009 (ip), vehicle: saline) was 122 % of control and the T/C (dose: 3.75 mg/kg/injection, schedule: Q01DX010 (ip), vehicle: saline) was 114 % of control. For the same molecule, the T/C [1] was 92 % of control, the T/C (dose: 7.5 mg/kg/injection, schedule: Q01DX009 (ip), vehicle: saline) was 111 % of control and the T/C (dose: 7.5 mg/kg/injection, schedule: Q01DX010 (ip), vehicle: saline) was 123 % of control. For the same molecule, the T/C [13] was 150 % of control, the T/C [2] was 103 % of control and the T/C (dose: 15.0 mg/kg/injection, schedule: Q01DX009 (ip), vehicle: saline) was 194 % of control. The T/C (dose: 15.0 mg/kg/injection, schedule: Q01DX010 (ip), vehicle: saline) was 118 % of control.
CCc1n[nH]c(=O)c2c3ccccc3nn12 was tested, and the T/C [11] was 96 % of control, the T/C [12] was 105 % of control and the T/C [15] was 100 % of control.
CC(=O)OC12COC1CC(O)C1(C)C(=O)C(O)C3=C(C)C(O)CC(O)(C(OC(=O)c4ccccc4)C21)C3(C)C (centres undefined) was tested, and the T/C (dose: 2.0 mg/kg/injection, schedule: Q01DX009 (ip), vehicle: alcohol) was 100 % of control, the T/C (dose: 4.0 mg/kg/injection, schedule: Q01DX009 (ip), vehicle: alcohol) was 95 % of control and the T/C (dose: 8.0 mg/kg/injection, schedule: Q01DX009 (ip), vehicle: alcohol) was 100 % of control. For the same molecule, the T/C (dose: 16.0 mg/kg/injection, schedule: Q01DX009 (ip), vehicle: alcohol) was 95 % of control.
With O=C(CI)Nc1ccc(Br)cc1 the T/C (dose: 8.75 mg/kg/injection, schedule: Q01DX009 (ip), vehicle: Klucel (hydroxypropylcellulose) (HPC)) was 104 % of control, the T/C (dose: 17.5 mg/kg/injection, schedule: Q01DX009 (ip), vehicle: Klucel (hydroxypropylcellulose) (HPC)) was 104 % of control and the T/C (dose: 26.25 mg/kg/injection, schedule: Q04DX003 (ip), vehicle: Klucel (hydroxypropylcellulose) (HPC)) was 90 % of control. For the same molecule, the T/C (dose: 35.0 mg/kg/injection, schedule: Q01DX009 (ip), vehicle: Klucel (hydroxypropylcellulose) (HPC)) was 104 % of control.
In the case of SC1(S)CN2CCC1CC2, the T/C [1] was 105 % of control, the T/C [2] was 105 % of control and the T/C [3] was 105 % of control.
Clc1ccc2c(c1)nnn2OC1CCCCC1 was tested, and the T/C [5] was 88 % of control, the T/C [6] was 92 % of control and the T/C [7] was 90 % of control.
With O=C(O)CCc1nc(-c2ccccc2)c(-c2ccccc2)o1 the T/C [5] was 100 % of control, the T/C [6] was 104 % of control and the T/C [7] was 119 % of control.
In the case of NC1=NC(=O)NC1(c1ccccc1)c1ccccc1, the T/C [5] was 107 % of control, the T/C [6] was 91 % of control and the T/C [7] was 90 % of control. For the same molecule, the T/C [16] was 94 % of control.
For c1ccc([I+]c2ccccc2)cc1, the T/C (dose: 1.0 mg/kg/injection, schedule: Q01DX009 (ip), vehicle: saline) was 100 % of control, the T/C (dose: 2.0 mg/kg/injection, schedule: Q01DX009 (ip), vehicle: saline) was 104 % of control and the T/C (dose: 4.0 mg/kg/injection, schedule: Q01DX009 (ip), vehicle: saline) was 90 % of control. The T/C (dose: 12.5 mg/kg/injection, schedule: Q04DX003 (ip), vehicle: saline sonified) was 115 % of control, the T/C (dose: 12.5 mg/kg/injection, schedule: Q04DX003 (sc), vehicle: olive oil, sesame oil, peanut oil) was 96 % of control and the T/C (dose: 25.0 mg/kg/injection, schedule: Q04DX003 (sc), vehicle: olive oil, sesame oil, peanut oil) was 100 % of control.
In the case of CCOC(=O)CCN(CC1CC=CCC1)c1cc(O)c2c(c1O)C(=O)c1ccccc1C2=O (centres undefined), the T/C (dose: 50.0 mg/kg/injection, schedule: Q01DX005 (ip), vehicle: saline with Tween-80) was 94 % of control, the T/C (dose: 100.0 mg/kg/injection, schedule: Q01DX005 (ip), vehicle: saline with Tween-80) was 89 % of control and the T/C (dose: 200.0 mg/kg/injection, schedule: Q01DX005 (ip), vehicle: saline with Tween-80) was 90 % of control.
For CCN(C(=O)Nc1ccccc1)c1ccccc1, the T/C [11] was 104 % of control, the T/C [12] was 90 % of control and the T/C [15] was 95 % of control.
With Clc1nc(Cl)c(Nc2ccn[nH]2)nc1Cl the T/C [5] was 100 % of control, the T/C [6] was 95 % of control and 100 % of control and the T/C [7] was 100 % of control. The T/C [16] was 95 % of control.
For CC1(C)O[C@]2(C)CC[C@@H]1[C@@H](O)[C@@H]2N1CCCC1, the T/C (dose: 50.0 mg/kg/injection, schedule: Q01DX005 (ip), vehicle: saline) was 95 % of control, the T/C (dose: 100.0 mg/kg/injection, schedule: Q01DX005 (ip), vehicle: saline) was 106 % of control and the T/C (dose: 200.0 mg/kg/injection, schedule: Q01DX005 (ip), vehicle: saline) was 106 % of control.
CCC1=C(C)C(=O)C2CCCCC2C1=O (centres undefined) was tested, and the T/C (dose: 100.0 mg/kg/injection, schedule: Q04DX003 (ip), vehicle: saline sonified) was 100 % of control, the T/C (dose: 200.0 mg/kg/injection, schedule: Q04DX003 (ip), vehicle: saline sonified) was 100 % of control and the T/C (dose: 400.0 mg/kg/injection, schedule: Q04DX003 (ip), vehicle: saline sonified) was 100 % of control.
In the case of CN(C)CC(C(=O)Cc1ccccc1)c1ccccc1 (centres undefined), the T/C [5] was 102 % of control and the T/C [6] was 111 % of control.
